# Data as given in US11542497B2, “Method for evaluating multiple different genes of interest” (THE UNIVERSITY OF TOKYO, priority 2017, dated 2023).
# Legend:
# [1] = test system: DLD1 BRCA2 (−/−) line with introduced BRCA2 variants; test: MANO-B method, olaparib at varied concentrations (Example 7); type: cell-based; details: for relative read count (no chemical = 1): Day 12, average of n=3
# Method: (§1) First, 3 different unique bar code sequences were added (to conduct experiments at n=3) to each of 11 different plasmids including: plasmids having wild-type BRCA2, K2729N mutation (benign), D2723H mutation (pathogenic), and 7 truncate variants in which a stop codon is introduced about every 500 amino acids (K485*, L997*, Q1502*, K1984*, C2535*, W2970*, C3304*); and piggyBac empty vector (System Biosciences, LLC). Accordingly, the total of 33 different plasmids were prepared. DLD1 BRCA2 (−/−) line was transfected with each plasmid and a transposase expression plasmid pCMV-hyPBase (Sanger Institute) in accordance with the manufacturer's protocol. In this way, cells having BRCA genes stably introduced in their genome were prepared.
# (§2) Different cell lines having mutated genes tagged with bar code sequences introduced were mixed in equal numbers. At this time point, genomic DNA was once extracted (Day 0). Here, a PARP inhibitor (olaparib) was given at varied concentrations and then cultured. Genomic DNA was extracted from the cells collected at Day 12 and was used as a template to PCR-amplify each bar code sequence. After that, deep-sequencing was performed with a next-generation sequencer. The effects of each mutation on the drug sensitivity and the cell proliferation potential were assessed from a change in the ratio of bar code read counts between the case of no chemical treatment and the case of chemical treatment.
# The results were normalized while the read count when no chemical was given was set to 1.
# When functional BRCA2 is introduced into cells, homologous recombination-mediated repair function is restored, and thus the sensitivity to the drug, a PARP inhibitor, decreases and the cells become resistant to the inhibitor. By contrast, cells having a function-deficient BRCA2 introduced are sensitive to the PARP inhibitor, so that the relative cell count decreases when the PARP inhibitor is added. Based on such criteria, the function of each mutated BRCA2 was examined. […] Thus, the mutation was determined to be a function-preserving, benign mutation, which is consistent with past reports.
# [2] = test system: DLD1 BRCA2 (−/−) line with introduced BRCA2 mutations; test: MANO-B method, Clinvar BRCA2 mutations, olaparib 1 μM (Example 8, FIG. 9); type: cell-based
# Method: as §1, §2
# Mutations registered at the Clinvar (https://www.ncbi.nlm.nih.gov/clinvar/) (18 kinds of benign mutation, 52 mutations of VUS or with conflicting interpretations, and 8 kinds of malignant mutation) were evaluated by the MANO-B method using the same procedure as of Example 7 (except that olaparib was used at 1 μM). As a result, most of the benign mutations or malignant mutations registered at the Clinvar were determined to be likewise benign or malignant, respectively, by the MANO-B method (data not shown).
smiles,measurement,setting,value
O=C(c1cc(Cc2n[nH]c(=O)c3ccccc23)ccc1F)N1CCN(C(=O)C2CC2)CC1 [olaparib],relative read count (no chemical = 1),"[1]; BRCA2 C2535*, olaparib 1 nM",0.94
same,relative read count (no chemical = 1),"[1]; BRCA2 C2535*, olaparib 5 nM",0.78
same,relative read count (no chemical = 1),"[1]; BRCA2 C2535*, olaparib 10 nM",0.77
same,relative read count (no chemical = 1),"[1]; BRCA2 C2535*, olaparib 50 nM",0.4
same,relative read count (no chemical = 1),"[1]; BRCA2 C2535*, olaparib 100 nM",0.27
same,relative read count (no chemical = 1),"[1]; BRCA2 C2535*, olaparib 500 nM",0.08
same,relative read count (no chemical = 1),"[1]; BRCA2 C2535*, olaparib 1 μM",0.05
same,relative read count (no chemical = 1),"[1]; BRCA2 C3304*, olaparib 1 nM",0.98
same,relative read count (no chemical = 1),"[1]; BRCA2 C3304*, olaparib 5 nM",1.14
same,relative read count (no chemical = 1),"[1]; BRCA2 C3304*, olaparib 10 nM",1.17
same,relative read count (no chemical = 1),"[1]; BRCA2 C3304*, olaparib 50 nM",0.94
same,relative read count (no chemical = 1),"[1]; BRCA2 C3304*, olaparib 100 nM",0.69
same,relative read count (no chemical = 1),"[1]; BRCA2 C3304*, olaparib 500 nM",0.3
same,relative read count (no chemical = 1),"[1]; BRCA2 C3304*, olaparib 1 μM",0.29
same,resistance of BRCA2 D2723H mutant to the PARP inhibitor,[1]; BRCA2 D2723H,did not exhibit resistance
same,relative read count (no chemical = 1),"[1]; BRCA2 D2723H, olaparib 1 nM",0.97
same,relative read count (no chemical = 1),"[1]; BRCA2 D2723H, olaparib 5 nM",0.76
same,relative read count (no chemical = 1),"[1]; BRCA2 D2723H, olaparib 10 nM",0.67
same,relative read count (no chemical = 1),"[1]; BRCA2 D2723H, olaparib 50 nM",0.34
same,relative read count (no chemical = 1),"[1]; BRCA2 D2723H, olaparib 100 nM",0.18
same,relative read count (no chemical = 1),"[1]; BRCA2 D2723H, olaparib 500 nM",0.07
same,relative read count (no chemical = 1),"[1]; BRCA2 D2723H, olaparib 1 μM",0.07
same,relative read count (no chemical = 1),"[1]; BRCA2 K485*, olaparib 1 nM",0.79
same,relative read count (no chemical = 1),"[1]; BRCA2 K485*, olaparib 5 nM",0.66
same,relative read count (no chemical = 1),"[1]; BRCA2 K485*, olaparib 10 nM",0.54
same,relative read count (no chemical = 1),"[1]; BRCA2 K485*, olaparib 50 nM",0.26
same,relative read count (no chemical = 1),"[1]; BRCA2 K485*, olaparib 100 nM",0.15
same,relative read count (no chemical = 1),"[1]; BRCA2 K485*, olaparib 500 nM",0.06
same,relative read count (no chemical = 1),"[1]; BRCA2 K485*, olaparib 1 μM",0.05
same,relative read count (no chemical = 1),"[1]; BRCA2 K1984*, olaparib 1 nM",0.94
same,relative read count (no chemical = 1),"[1]; BRCA2 K1984*, olaparib 5 nM",0.84
same,relative read count (no chemical = 1),"[1]; BRCA2 K1984*, olaparib 10 nM",0.77
same,relative read count (no chemical = 1),"[1]; BRCA2 K1984*, olaparib 50 nM",0.36
same,relative read count (no chemical = 1),"[1]; BRCA2 K1984*, olaparib 100 nM",0.25
same,relative read count (no chemical = 1),"[1]; BRCA2 K1984*, olaparib 500 nM",0.08
same,relative read count (no chemical = 1),"[1]; BRCA2 K1984*, olaparib 1 μM",0.05
same,resistance of BRCA2 K2729N mutant to the PARP inhibitor compared with the wild-type,[1]; BRCA2 K2729N,substantially the same resistance
same,relative read count (no chemical = 1),"[1]; BRCA2 K2729N, olaparib 1 nM",1.08
same,relative read count (no chemical = 1),"[1]; BRCA2 K2729N, olaparib 5 nM",1.58
same,relative read count (no chemical = 1),"[1]; BRCA2 K2729N, olaparib 10 nM",1.36
same,relative read count (no chemical = 1),"[1]; BRCA2 K2729N, olaparib 50 nM",1.74
same,relative read count (no chemical = 1),"[1]; BRCA2 K2729N, olaparib 100 nM",2.31
same,relative read count (no chemical = 1),"[1]; BRCA2 K2729N, olaparib 500 nM",4.76
same,relative read count (no chemical = 1),"[1]; BRCA2 K2729N, olaparib 1 μM",3.72
same,relative read count (no chemical = 1),"[1]; BRCA2 L997*, olaparib 1 nM",0.85
same,relative read count (no chemical = 1),"[1]; BRCA2 L997*, olaparib 5 nM",0.71
same,relative read count (no chemical = 1),"[1]; BRCA2 L997*, olaparib 10 nM",0.54
same,relative read count (no chemical = 1),"[1]; BRCA2 L997*, olaparib 50 nM",0.24
same,relative read count (no chemical = 1),"[1]; BRCA2 L997*, olaparib 100 nM",0.13
same,relative read count (no chemical = 1),"[1]; BRCA2 L997*, olaparib 500 nM",0.06
same,relative read count (no chemical = 1),"[1]; BRCA2 L997*, olaparib 1 μM",0.07
same,relative read count (no chemical = 1),"[1]; BRCA2 Q1502*, olaparib 1 nM",1
same,relative read count (no chemical = 1),"[1]; BRCA2 Q1502*, olaparib 5 nM",0.88
same,relative read count (no chemical = 1),"[1]; BRCA2 Q1502*, olaparib 10 nM",0.78
same,relative read count (no chemical = 1),"[1]; BRCA2 Q1502*, olaparib 50 nM",0.43
same,relative read count (no chemical = 1),"[1]; BRCA2 Q1502*, olaparib 100 nM",0.24
same,relative read count (no chemical = 1),"[1]; BRCA2 Q1502*, olaparib 500 nM",0.12
same,relative read count (no chemical = 1),"[1]; BRCA2 Q1502*, olaparib 1 μM",0.07
same,relative read count (no chemical = 1),"[1]; BRCA2 W2970*, olaparib 1 nM",0.97
same,relative read count (no chemical = 1),"[1]; BRCA2 W2970*, olaparib 5 nM",0.93
same,relative read count (no chemical = 1),"[1]; BRCA2 W2970*, olaparib 10 nM",0.75
same,relative read count (no chemical = 1),"[1]; BRCA2 W2970*, olaparib 50 nM",0.45
same,relative read count (no chemical = 1),"[1]; BRCA2 W2970*, olaparib 100 nM",0.22
same,relative read count (no chemical = 1),"[1]; BRCA2 W2970*, olaparib 500 nM",0.09
same,relative read count (no chemical = 1),"[1]; BRCA2 W2970*, olaparib 1 μM",0.07
same,relative read count (no chemical = 1),"[1]; BRCA2 wild type, olaparib 1 nM",1.22
same,relative read count (no chemical = 1),"[1]; BRCA2 wild type, olaparib 5 nM",1.52
same,relative read count (no chemical = 1),"[1]; BRCA2 wild type, olaparib 10 nM",1.92
same,relative read count (no chemical = 1),"[1]; BRCA2 wild type, olaparib 50 nM",3.19
same,relative read count (no chemical = 1),"[1]; BRCA2 wild type, olaparib 100 nM",3.82
same,relative read count (no chemical = 1),"[1]; BRCA2 wild type, olaparib 500 nM",4.2
same,relative read count (no chemical = 1),"[1]; BRCA2 wild type, olaparib 1 μM",4.42
same,relative read count (no chemical = 1),"[1]; Empty vector, olaparib 1 nM",0.98
same,relative read count (no chemical = 1),"[1]; Empty vector, olaparib 5 nM",0.82
same,relative read count (no chemical = 1),"[1]; Empty vector, olaparib 10 nM",0.69
same,relative read count (no chemical = 1),"[1]; Empty vector, olaparib 50 nM",0.38
same,relative read count (no chemical = 1),"[1]; Empty vector, olaparib 100 nM",0.21
same,relative read count (no chemical = 1),"[1]; Empty vector, olaparib 500 nM",0.07
same,relative read count (no chemical = 1),"[1]; Empty vector, olaparib 1 μM",0.05
same,MANO-B group of VUS / conflicting-interpretation BRCA2 mutations,"[2]; 5 mutants: D2913H, P2639L, S3291C, D23V, and I2664M","impossible-to-determine (the thresholds were set to 0.1 and 0.5 and the mutations were grouped into 3 groups of benign, malignant, and impossible-to-determine mutations)"
same,MANO-B group of VUS / conflicting-interpretation BRCA2 mutations,"[2]; 9 mutants: R2659G, N3124I, L2604P, W31C, E2663K, W2626R, D3073G, G2609D, and P2329L","malignant (the thresholds were set to 0.1 and 0.5 and the mutations were grouped into 3 groups of benign, malignant, and impossible-to-determine mutations)"
same,MANO-B group of VUS / conflicting-interpretation BRCA2 mutations,"[2]; 38 mutants: R2896C, A2643G, S142N, N854S, Y42C, G602V, T3387A, T2412A, E3096K, E2020K, S3319F, V1532F, E747G, S2697N, K2411T, P3054S, Q147R, S445Y, S755C, Y600C, K2075N, V159E, P41L, H595Y, F266L, R3385H, T2337A, I2627V, I1167V, N55S, V208G, P3292L, S1074C, T598A, T2071, R324T, A2911V, E1695V","benign (the thresholds were set to 0.1 and 0.5 and the mutations were grouped into 3 groups of benign, malignant, and impossible-to-determine mutations)"
same,"MANO-B score, highest score of the malignant mutations",[2]; BRCA2 G2724W,0.03839
same,"MANO-B score, lowest score of the benign mutations",[2]; BRCA2 N2436I,0.7386
